Assay results: BigSolDB 2.1

O=C(O)C[C@H](O)C(=O)O
solubility (mole fraction)
Settings	278.15 K	283.15 K	288.15 K	293.15 K	298.15 K	303.15 K	308.15 K	313.15 K	318.15 K	323.15 K
in acetone	0.136	0.145	0.153	0.163	0.17	0.18	0.189	0.201	0.211	0.225
in acetonitrile	0.045	0.0485	0.0523	0.0559	0.0608	0.0646	0.0684	0.0733	0.0783	0.0838
in ethanol	0.11	0.126	0.145	0.166	0.187	0.207	0.232	0.256	0.283	0.314
in ethyl acetate	0.0017	0.0029	0.005	0.0083	0.0134	0.0213	0.0333	0.0516	0.0763	0.113
in isopropanol	0.117	0.136	0.157	0.178	0.203	0.228	0.256	0.285	0.314	0.345
in n-butanol	0.0832	0.0948	0.109	0.124	0.14	0.159	0.18	0.201	0.225	0.25
in n-propanol	0.0917	0.103	0.118	0.134	0.153	0.172	0.193	0.215	0.238	0.264
